Measurements published in PMC8070564, “Synthesis and Antiviral Activity of Camphene Derivatives against Different Types of Viruses” (Molecules, 2021).
Read-outs that look alike come from different tables or passages of the source.

Tests used:
EBOV (strain Zaire) = assay: microbe, parasite or virus in culture; assay type: cell-based, Ebola virus (EBOV); settings: for IC50: read-out: IC50 EBOV
rVSV-ΔG-EboV-GP = assay: microbe, parasite or virus in culture; assay type: cell-based, Ebola pseudotype viruses; settings: Zaire ebolavirus, HEK-293T, read-out: IC50 EboV-GP
[1] = Cytotoxicity in HEK293T cells (Table 5); settings: human
rVSV-ΔG-MarV-GP = assay: organism not typed; assay type: cell-based, Marburg pseudotype viruses; settings: HEK-293T, read-out: IC50 MarV-GP
in vitro [2] = settings: dog
[3] = system: influenza virus A/Puerto Rico/8/34 (H1N1); assay: microbe, parasite or virus in culture; assay type: cell-based; settings: H1N1, MDCK, read-out: IC50 H1N1
in vitro [4] = settings: African green monkey
rVSV-ΔG-G = assay: microbe, parasite or virus in culture; assay type: cell-based; settings: Vesicular stomatitis virus, HEK-293T, read-out: IC50 VSV-G
in vitro [5] = settings: human
rVSV-ΔG-Gn-Gc = assay: microbe, parasite or virus in culture; assay type: cell-based, Hantaan virus strain 76–118; settings: Orthohantavirus hantanense, HEK-293T, read-out: IC50 rVSV-ΔG-Gn-Gc
in vitro [6] = settings: African green monkey; remark: listed apart in the source
[7] = system: vaccinia virus (strain Copenhagen); assay: microbe, parasite or virus in culture; assay type: cell-based; settings: Orthopoxvirus vaccinia, Vero, read-out: IC50 VV
[8] = system: Ebola virus (EBOV) (strain Zaire); settings: cited from earlier work
[9] = system: Marburg virus (MARV) (strain Popp); settings: cited from earlier work
vaccinia virus (VV) = settings: cited from earlier work
[10] = system: influenza virus A/Puerto Rico/8/34 (H1N1); settings: cited from earlier work

SMILES	IC50 (rVSV-ΔG-EboV-GP)	IC50 (rVSV-ΔG-MarV-GP)	CC50 (in vitro [2])	IC50 [3]	CC50 (in vitro [5])	CC50 (in vitro [6])	also measured
CC1(C)[C@@H]2CC[C@@]1(C)[C@H](OCCN1CCCC1)C2 (racemic) [Compound 2a, (±)-1-(2-(1,7,7-Trimethylbicyclo(2.2.1)heptan-2-yloxy)ethyl)pyrrolidine]	0.12 ± 0.04 µM	73.6 ± 1.9 µM	> 1190 µM	45.3 ± 5.2 µM	497 ± 8 µM	–	IC50 (EBOV (strain Zaire); Zaire ebolavirus, Vero): 18.3 ± 3.1 µM; CC50 [1]: 358 ± 27.8 µM; CC50 (in vitro [4]): 231 ± 16.5 µM; IC50 (rVSV-ΔG-G): 123 ± 4 µM; IC50 (rVSV-ΔG-Gn-Gc): 9.1 ± 1.2 µM
CC1(C)[C@@H]2CC[C@@]1(C)[C@H](OCCN1CCCCC1)C2 (racemic) [Compound 3a, (±)-1-(2-(1,7,7-Trimethylbicyclo(2.2.1)heptan-2-yloxy)ethyl)piperidine]	6.3 ± 0.3 µM	–	> 1130 µM	64.8 ± 5.9 µM	942 ± 18.8 µM	–	IC50 (EBOV (strain Zaire); Zaire ebolavirus, Vero): 15.2 ± 2.1 µM; CC50 [1]: 151 ± 18.8 µM; CC50 (in vitro [4]): 55.9 ± 12.2 µM; IC50 (rVSV-ΔG-G): 942 ± 18.8 µM; IC50 (rVSV-ΔG-Gn-Gc): 5 ± 0.8 µM
CC1(C)[C@@H]2CC[C@@]1(C)[C@H](OCCCN1CCCCC1)C2 (racemic) [Compound 3b, (±)-1-(3-(1,7,7-Trimethylbicyclo(2.2.1)heptan-2-yloxy)propyl)piperidine]	473 ± 11.4 µM	170 ± 3.8 µM	950 ± 52.5 µM	347 ± 41.1 µM	2120 ± 49.2 µM	140 ± 8.7 µM	IC50 (rVSV-ΔG-G): 946 ± 22.7 µM
CC1CCN(CCO[C@@H]2C[C@H]3CC[C@]2(C)C3(C)C)CC1 (racemic) [Compound 4a, (±)-4-Methyl-1-(2-(1,7,7-trimethylbicyclo(2.2.1)]heptan-2-yloxy)ethyl)piperidine]	1.3 ± 0.1 µM	60.8 ± 1.8 µM	> 1070 µM	37.9 ± 5.6 µM	447 ± 10.7 µM	–	IC50 EBOV (EBOV (strain Zaire)): did not show antiviral activity; IC50 (rVSV-ΔG-G): 111 ± 3.6 µM
CC1CCN(CCCO[C@@H]2C[C@H]3CC[C@]2(C)C3(C)C)CC1 (racemic) [Compound 4b, (±)-4-Methyl-1-(3-(1,7,7-trimethylbicyclo(2.2.1)heptan-2-yloxy)propyl)piperidine]	–	96.1 ± 3.4 µM	491 ± 32.2 µM	69.7 ± 8.4 µM	141 ± 3.4 µM	40.9 ± 2.7 µM	–
CN1CCN(CCO[C@@H]2C[C@H]3CC[C@]2(C)C3(C)C)CC1 (racemic) [Compound 5a, (±)-1-Methyl-4-(2-(1,7,7-trimethylbicyclo(2.2.1)heptan-2-yloxy)ethyl)piperazine]	–	85.6 ± 1.8 µM	28.5 ± 1.2 µM	13.2 ± 2 µM	653 ± 14.3 µM	100 ± 6.1 µM	–
CN1CCN(CCCO[C@@H]2C[C@H]3CC[C@]2(C)C3(C)C)CC1 (racemic) [Compound 5b, (±)-1-Methyl-4-(3-(1,7,7-trimethylbicyclo(2.2.1)heptan-2-yloxy)propyl)piperazine]	–	–	51 ± 4.1 µM	> 37.4 µM	109 ± 3.4 µM	64.2 ± 3.1 µM	–
CC1(C)[C@@H]2CC[C@@]1(C)[C@H](OCCN1CCN(Cc3ccccc3)CC1)C2 (racemic) [Compound 6a, (±)-1-Benzyl-4-(2-(1,7,7-trimethylbicyclo(2.2.1)heptan-2-yloxy)ethyl)piperazine]	–	–	33.7 ± 2.8 µM	3.4 ± 0.5 µM	575 ± 11.2 µM	14 ± 1.7 µM	–
CC1(C)[C@@H]2CC[C@@]1(C)[C@H](OCCCN1CCN(Cc3ccccc3)CC1)C2 (racemic) [Compound 6b, (±)-1-Benzyl-4-(3-(1,7,7-trimethylbicyclo(2.2.1)heptan-2-yloxy)propyl)piperazine]	67.5 ± 2.7 µM	124 ± 2.7 µM	10.8 ± 0.8 µM	> 8 µM	148 ± 5.4 µM	21.3 ± 2.2 µM	–
CC1(C)[C@@H]2CC[C@@]1(C)[C@H](OCCN1CCOCC1)C2 (racemic) [Compound 7a, (±)-4-(2-(1,7,7-Trimethylbicyclo(2.2.1)heptan-2-yloxy)ethyl)morpholine]	0.6 ± 0.2 µM	150 ± 3.7 µM	385 ± 19.7 µM	252 ± 31.1 µM	860 ± 22.4 µM	–	IC50 (EBOV (strain Zaire); Zaire ebolavirus, Vero): 5.63 µM; IC50 (EBOV (strain Zaire)): 5.6 ± 0.9 µM; CC50 [1]: 1160 ± 56.1 µM; IC50 (rVSV-ΔG-G): 935 ± 26.2 µM; IC50 (rVSV-ΔG-Gn-Gc): 14.8 ± 1.9 µM
CC1(C)[C@@H]2CC[C@@]1(C)[C@H](OCCCN1CCOCC1)C2 (racemic) [Compound 7b, (±)-4-(3-(1,7,7-trimethylbicyclo(2.2.1)heptan-2-yloxy)propyl)morpholine]	–	–	562 ± 48.2 µM	24.2 ± 3.1 µM	1440 ± 28.4 µM	174 ± 11.9 µM	–
CC1(C)[C@@H]2CC[C@@]1(C)[C@H](OCCN1CCCCCC1)C2 (racemic) [Compound 8a, (±)-1-(2-(1,7,7-Trimethylbicyclo(2.2.1)heptan-2-yloxy)ethyl)azepane]	112 ± 3.6 µM	90.2 ± 3.6 µM	50.5 ± 4.5 µM	35.3 ± 5 µM	721 ± 14.4 µM	19.1 ± 2.5 µM	IC50 (rVSV-ΔG-G): 361 ± 10.8 µM
CC1(C)[C@@H]2CC[C@@]1(C)[C@H](OCCCN1CCCCCC1)C2 (racemic) [Compound 8b, (±)-1-(3-((1,7,7-Trimethylbicyclo(2.2.1)heptan-2-yloxy)propyl)azepane]	–	–	374 ± 22.8 µM	320 ± 36.9 µM	704 ± 10.3 µM	23.7 ± 2.7 µM	–
Nc1ccn(C[C@@H](CO)OCP(=O)(O)O)c(=O)n1 [Cidofovir, reference compound]	–	–	–	–	–	475 ± 30.1 µM	IC50 [7]: 40 ± 1.2 µM
CC1(C)[C@H]2CC[C@]1(C)[C@H](OC(=O)CCN1CCCCC1)C2 [Ia]	–	–	–	–	–	–	IC50 [8]: 47.5 µM; IC50 [9]: 3.7 µM; IC50 (vaccinia virus (VV)): 121 µM; IC50 [10]: 7.8 µM
CC1CCN(CCC(=O)O[C@@H]2C[C@@H]3CC[C@@]2(C)C3(C)C)CC1 [Ib]	–	–	–	–	–	–	IC50 [8]: 54.3 µM; IC50 [9]: 2.2 µM; IC50 [10]: 15.3 µM
CN1CCN(CCC(=O)O[C@@H]2C[C@@H]3CC[C@@]2(C)C3(C)C)CC1 [Ic]	–	–	–	–	–	–	IC50 (vaccinia virus (VV)): 64.8 µM; IC50 [10]: 1.9 µM
CC1(C)[C@H]2CC[C@]1(C)[C@H](OC(=O)CCN1CCOCC1)C2 [Id]	–	–	–	–	–	–	IC50 (vaccinia virus (VV)): 3.4 µM; IC50 [10]: 12.2 µM
NC(=O)c1ncn([C@@H]2O[C@H](CO)[C@@H](O)[C@H]2O)n1 [Ribavirin, reference compound]	–	–	> 2000 µM	24.6 ± 3.7 µM	–	–	–
CC(N)C12CC3CC(CC(C3)C1)C2 (stereo not drawn) [Rimantadine, reference compound]	–	–	335 ± 27 µM	67 ± 4.9 µM	–	–	–
O=C(NN1C(=O)[C@@H]2[C@@H]3C=C[C@@H]([C@H]4C[C@@H]34)[C@@H]2C1=O)c1ccc(C(F)(F)F)cc1 [ST-246, reference compound]	–	–	–	–	–	1280 ± 202 µM	IC50 [7]: 0.01 ± 0.003 µM
CN[C@H]1CC[C@@H](c2ccc(Cl)c(Cl)c2)c2ccccc21 [Sertraline, sertraline, reference compound]	–	–	–	–	408 ± 35.9 µM	–	–
